{
  "source": "patent US20130324606A1",
  "about": "“Ester Derivatives of Bimatoprost Compositions and Methods” (ALLERGAN, INC., priority 2011, published 2013)",
  "key": {"[1]": {"assay": "In vitro human skin penetration (Franz diffusion chamber)", "format": "in vitro ADME", "excerpt": "Test material: Dermatomed ex vivo human cadaver posterior trunk skin on 1.0 cm^2 Franz diffusion chamber as known in the art. Test size: 3 skin donors (obtained from New York Firefighters Skin Bank), 3 replicates per donor per formulation. Test formulations: 0.03% active agent (Cmpd IVa, Cmpd IIIb, Cmpd IVb) in Formulation A; control formulation: bimatoprost at 0.03% in Formulation A. Dosing regimen: receptor fluid at 2, 4, 24, and 48 hrs; SC/epidermis and dermis at 48 hrs. Sample analysis: LC/MS-MS to detect bimatoprost and Cmpds IVa, IIIb and IVb."}, "[2]": {"assay": "Compound distribution in mouse skin by MALDI-MS imaging", "format": "in vivo", "procedure": "In order to determine the penetration, accumulation and/or differential distribution of bimatoprost and compounds disclosed herein upon dermal administration, MALDI-MS (matrix assisted laser desorption ionization mass spectroscopy) imaging was conducted on explanted samples of mouse skin after topical dermal administration.\nMALDI-MS imaging was conducted on mouse skin strips after administration of bimatoprost or compound disclosed herein once daily for 3 days. Samples of mouse skin were recovered 4 hr after day-3 dosing of compound. Dermal administration was conducted with vehicle, 0.03% bimatoprost, 3% bimatoprost, 0.03% Cmpd IVa, and 3% Cmpd IVa.\nFIG. 16A depicts a typical explanted sample of mouse skin for these studies, wherein Cmpd IVa was applied via dermal administration. FIG. 16B depicts the result of MALDI-MS imaging. The intensity of each pixel within FIG. 16B reflects the concentration of Cmpd IVa at the corresponding point in the image depicted in FIG. 16A. FIG. 16C depicts a representative mass spectrum, corresponding to the region of FIG. 16B indicated by the white circle within FIG. 16B. Accordingly, each pixel of the image of FIG. 16B has an associated mass spectrum, providing the amounts of bimatoprost or other administered compound or metabolite thereof."}, "[3]": {"test_system": "reconstructed human epidermis (RHE)", "assay": "In vitro dermal irritation screening in reconstructed human epidermis", "format": "cell-based", "conditions": "concentration 0.03%, Formulation A vehicle", "procedure": "In vitro irritation screening assays were conducted for compounds described herein. Test system was the reconstructed human epidermis (RHE), as known in the art. Single dosing was employed, and endpoints were evaluated as a function of time up to 24-hrs. Endpoints were tissue viability and IL-1α release.\nTest compounds included Cmpds IVa (0.03%), IIIb (0.03%), IVb (0.03%), bimatoprost (0.03%), minoxidil (5%, foam), and minoxidil (5%, solution). Administration of Cmpds IVa, IIIb, IVb and bimatoprost employed the vehicle of Formulation A. See Table 1 above. Administration of minoxidil employed minoxidil vehicle with formulation 20% H2O, 50% propylene glycol, and 30% ethanol."}, "[4]": {"assay": "microAmes mutagenesis screen", "format": "cell-based", "conditions": "with or without metabolic activation", "excerpt": "Cmpds IVa, IIIb, and IVb were subjected to the microAmes screen, as known in the art."}, "[5]": {"assay": "Dermal tolerability in rats", "format": "in vivo", "conditions": "female rats", "procedure": "Female rats were administered either vehicle or one of Cmpds IVa, IIIb, or IVb daily for 8 days. The administered dose was 3 mg/kg/day, at a concentration of 3 mg/mL. Observed data were body weight, viability, food consumption, and dermal observation (skin reaction grading), as known in the art. The vehicle was Formulation A. See Table 1 above."}, "[6]": {"assay": "In vitro human skin penetration (Franz diffusion chamber)", "format": "in vitro ADME", "conditions": "FIGS. 14A-14C, 6, 24, 48 hr"}, "[7]": {"test_system": "C57Black/6J mice", "assay": "Piliation (hair regrowth) studies in mice", "format": "in vivo", "conditions": "mouse hair regrowth", "procedure": "C57Black/6J, 7-week old female mice (n=10) were employed in piliation studies. Dorsal hair was shaved (area ˜2 cm×4 cm). Dosing of active agent was once per day (QD) by topical administration for 14 days. Observations were conducted for 42-days to determine onset of new hair growth and day of hair growth completion. Compounds were formulated as either a) 50% propylene glycol, 30% ethanol, 20% water, or b) the formulation of Formulation A described above. The experiments reported for FIGS. 4A-4B, 5A-5B, 6A-6B, 8A-8B, and 9A-9B were conducted using a vehicle with formulation of 50% propylene glycol, 30% ethanol, 20% water. The experiments reported for FIGS. 7A-7B were conducted using a vehicle of Formulation A described above.\nFor each of FIGS. 4A, 5A, 6A, 7A, 8A and 9A, the histograms depict the day of onset of hair growth. For each of FIGS. 4B, 5B, 6B, 7B, 8B and 9B, the histograms depict the day achieving full hair growth."}, "[8]": {"assay": "Formulation and stability studies", "format": "physicochemical", "conditions": "variations of Formulation A, 0.03% active, pH 4, 5, 6 and 7; 25, 40 and 60° C.; zero time and 80-days", "procedure": "Stability over time of compounds disclosed herein was determined in formulation as a function of temperature and pH. Variations of Formulation A described herein were employed wherein the target concentration of active agent was 0.03%, and the pH was varied at pH 4, 5, 6 and 7. Temperatures of 25° C., 40° C. and 60° C. were maintained during the experiment. Samples were evaluated at zero time and 80-days.\nCmpds IVa, IIIb, and IVb for evaluated for stability.\nFIGS. 1A-1B, 2A-2B, and 3A-3B depict histograms of relative concentrations of test compounds (arbitrary scale) at zero time or 80-days. FIG. 1A depicts a histogram of the stability profile of Cmpd IVa as a function of pH and temperature. FIG. 1B depicts a histogram of the formation of bimatoprost as a function of pH and temperature after 80-days for Cmpd IVa. FIG. 2A depicts a histogram of the stability profile of Cmpd IVb as a function of pH and temperature. FIG. 2B depicts a histogram of the formation of bimatoprost as a function of pH and temperature after 80-days for Cmpd IVb. FIG. 3A depicts a histogram of the stability profile of Cmpd IIIb as a function of pH and temperature. FIG. 3B depicts a histogram of the formation of bimatoprost as a function of pH and temperature after 80-days for Cmpd IIIb."}, "[9]": {"conditions": "dermal 3 mg/kg/day daily for 8 days, Formulation A"}},
  "data": [
    {"smiles": "CCNC(=O)CCC/C=C\\C[C@@H]1[C@@H](/C=C/[C@H](CCc2ccccc2)OC(C)=O)[C@H](O)C[C@@H]1O", "note": "[Cmpd IVa, 15-acetyl-bimatoprost]", "values": [
      {"measurement": "skin penetration (cumulative amount in receptor solution) relative to bimatoprost", "setting": "[1]; 0.03% in Formulation A, FIG. 13A", "value": "significantly greater than for bimatoprost"},
      {"measurement": "penetration flux relative to bimatoprost", "setting": "[1]; 0.03% in Formulation A, FIG. 13B", "value": "greater than that for bimatoprost"},
      {"measurement": "Percentage Dose Applied, Receptor Chamber Solution, Prodrug", "setting": "[1]; 0.03% in Formulation A, Franz chamber, dosed compound", "value": 4.3, "unit": "Percentage Dose Applied"},
      {"measurement": "Percentage Dose Applied, Upper ⅓ Dermis, Prodrug", "setting": "[1]; 0.03% in Formulation A, dermis at 48 hrs, dosed compound", "value": 3.8, "unit": "Percentage Dose Applied"},
      {"measurement": "conversion to bimatoprost in the SC/Epi/Dermis layers", "setting": "[1]; FIG. 15A", "value": "converted to bimatoprost"},
      {"measurement": "amount of active agent in the upper third of the dermis relative to bimatoprost", "setting": "[1]; FIG. 15B", "value": "less than observed for bimatoprost"},
      {"measurement": "detectability in mouse skin by MALDI-MS imaging", "setting": "[2]; after topical dermal administration at 0.03%", "value": "detectable"},
      {"measurement": "skin penetration of 3.0% compound compared with 3.0% bimatoprost", "setting": "[2]; topical dermal administration, MALDI-MS", "value": "similar"},
      {"measurement": "potential for irritation of the human skin", "setting": "[3]", "value": "no indication of potential for irritation"},
      {"measurement": "mutagenicity in microAmes screen", "setting": "[4]", "value": "not mutagenic"},
      {"measurement": "change in food consumption and body weight gain (in words)", "setting": "[5]; 3 mg/kg/day daily for 8 days", "value": "no significant change in food consumption or body weight gain"},
      {"measurement": "dermal observation: signs of irritation", "setting": "[5]; 3 mg/kg/day, days 2-4", "value": "minimal and transient signs of irritation"},
      {"measurement": "Body Weight Gain (g) Mean ± SD", "setting": "[5]; [9]", "value": "9.0 ± 3.0", "unit": "g"},
      {"measurement": "Food Consumption (g) Mean ± SD", "setting": "[5]; [9]", "value": "21.14 ± 1.08", "unit": "g"},
      {"measurement": "conversion to bimatoprost in the receptor chamber solution", "setting": "[6]", "value": "observed to convert to bimatoprost"},
      {"measurement": "effectiveness of 0.03% compound compared to 0.1% to 0.3% bimatoprost", "setting": "[7]", "value": "approximately equally effective"},
      {"measurement": "pharmacological efficacy relative to bimatoprost", "setting": "[7]; vehicle 50% propylene glycol, 30% ethanol, 20% water", "value": "efficacy greater than bimatoprost"},
      {"measurement": "pharmacological efficacy relative to bimatoprost", "setting": "[7]; vehicle Formulation A", "value": "efficacy greater than bimatoprost"},
      {"measurement": "stability in formulation", "setting": "[8]", "value": "stable in formulation"}
    ]}
  ]
}
